system: RSV Long strain; experiment: Viral Cytopathic Effect (CPE) Assay; format: cell-based; conditions: human respiratory syncytial virus, 144 h, cell viability after 6 days, Cell Counting kit-8

EC50 [nM]	Compound
3	CS(=O)(=O)c1nn(Cc2nc3cc(Cl)ccc3n2[C@H]2C[C@H](CO)C2)c2cnccc12 [Example 11, [trans-3-(5-chloro-2-{[3-(methylsulfonyl)-1H-pyrazolo[3,4-c]pyridin-1-yl]methyl}-1H-benzimidazol-1-yl)cyclobutyl]methanol]
2	CS(=O)(=O)c1nn(Cc2nc3cc(Cl)ccc3n2[C@H]2CC[C@H](O)C2)c2cnccc12 (relative stereo) [Example 2-36, trans-3-(5-chloro-2-{[3-(methylsulfonyl)-1H-pyrazolo[3,4-c]pyridin-1-yl]methyl}-1H-benzimidazol-1-yl)cyclopentanol]
8.12	CS(=O)(=O)CCCn1c(Cn2nc(S(C)(=O)=O)c3ccncc32)cc2cc(Cl)ccc21 [Example 9-2, 1-({5-Chloro-1-[3-(methylsulfonyl)propyl]-1H-indol-2-yl}methyl)-3-(methylsulfonyl)-1H-pyrazolo[3,4-c]pyridine]
3.3	CS(=O)(=O)c1nn(Cc2nc3cc(Cl)ccc3n2CCC(O)C(F)F)c2cnccc12 (stereo not drawn) [Example 2-44, 4-(5-chloro-2-{[3-(methylsulfonyl)-1H-pyrazolo[3,4-c]pyridin-1-yl]methyl}-1H-benzimidazol-1-yl)-1,1-difluorobutan-2-ol]
65	CCS(=O)(=O)c1cn(Cc2nc3cc(Cl)ccc3n2CCCS(C)(=O)=O)c2ccccc12 [Example 1-5, 5-Chloro-2-{[3-(ethylsulfonyl)-1H-indol-1-yl]methyl}-1-[3-(methylsulfonyl)propyl]-1H-benzimidazole]
8	CC(C)(O)CCCn1c(Cn2nc(S(C)(=O)=O)c3ccncc32)nc2cc(Cl)ccc21 [Example 2-38, 5-(5-chloro-2-{[3-(methylsulfonyl)-1H-pyrazolo[3,4-c]pyridin-1-yl]methyl}-1H-benzimidazol-1-yl)-2-methylpentan-2-ol]
21.8	CS(=O)(=O)c1nn(Cc2nc3cc(Cl)ccc3n2C2CCOCC2)c2ccccc12 [Example 2-6, 1-{[5-Chloro-1-(tetrahydro-2H-pyran-4-yl)-1H-benzimidazol-2-yl]methyl}-3-(methylsulfonyl)-1H-indazole]
9.86	CS(=O)(=O)c1nn(Cc2nc3cc(Cl)ccc3n2-c2ccc(F)nc2)c2ccccc12 [Example 3-1, 1-{[5-Chloro-1-(6-fluoropyridin-3-yl)-1H-benzimidazol-2-yl]methyl}-3-(methylsulfonyl)-1H-indazole]
44.2	CS(=O)(=O)c1nn(Cc2nc3cc(Cl)ccc3n2C2CCNC2)c2cnccc12 (stereo not drawn) [Example 2-13, 1-{[5-Chloro-1-(pyrrolidin-3-yl)-1H-benzimidazol-2-yl]methyl}-3-(methylsulfonyl)-1H-pyrazolo[3,4-c]pyridine]
7	CS(=O)(=O)c1nn(Cc2nc3cc(Cl)ccc3n2[C@H]2C[C@](C)(O)C2)c2cnccc12 [Example 2-26, trans-3-(5-Chloro-2-{[3-(methylsulfonyl)-1H-pyrazolo[3,4-c]pyridin-1-yl]methyl}-1H-benzimidazol-1-yl)-1-methylcyclobutanol]
13	CC(C)(O)C(=O)N1CC[C@@H](n2c(Cn3nc(S(C)(=O)=O)c4ccncc43)nc3cc(Cl)ccc32)C1 [Example 6-5, 1-[(3R)-3-(5-Chloro-2-{[3-(methylsulfonyl)-1H-pyrazolo[3,4-c]pyridin-1-yl]methyl}-1H-benzimidazol-1-yl)pyrrolidin-1-yl]-2-hydroxy-2-methylpropan-1-one]
15	CS(=O)(=O)c1nn(Cc2nc3cc(Cl)ccc3n2CCOCCO)c2cnccc12 [Example 2-35, 2-[2-(5-chloro-2-{[3-(methylsulfonyl)-1H-pyrazolo[3,4-c]pyridin-1-yl]methyl}-1H-benzimidazol-1-yl)ethoxy]ethanol]
7.72	CS(=O)(=O)c1nn(Cc2nc3cc(Cl)ccc3n2C2CCOCC2)c2cnccc12 [Example 2-7, 1-{[5-Chloro-1-(tetrahydro-2H-pyran-4-yl)-1H-benzimidazol-2-yl]methyl}-3-(methylsulfonyl)-1H-pyrazolo[3,4-c]pyridine]
6.79	CC1(CCn2c(Cn3nc(S(C)(=O)=O)c4ccncc43)nc3cc(Cl)ccc32)COC1 [Example 2-25, 1-({5-Chloro-1-[2-(3-methyloxetan-3-yl)ethyl]-1H-benzimidazol-2-yl}methyl)-3-(methylsulfonyl)-1H-pyrazolo[3,4-c]pyridine]
3	[2H]C([2H])(O)CCn1c(Cn2nc(S(C)(=O)=O)c3ccncc32)nc2cc(Cl)ccc21 [Example 13, 3-(5-chloro-2-{[3-(methylsulfonyl)-1H-pyrazolo[3,4-c]pyridin-1-yl]methyl}-1H-benzimidazol-1-yl)(1,1-^2H2)propan-1-ol]
1170	CS(=O)(=O)c1nn(Cc2nc3cc(Cl)ccc3n2[C@H]2CCN(CC(F)(F)F)C2)c2cnccc12 [Example 2-19, 1-({5-Chloro-1-[(3S)-1-(2,2,2-trifluoroethyl)pyrrolidin-3-yl]-1H-benzimidazol-2-yl}methyl)-3-(methylsulfonyl)-1H-pyrazolo[3,4-c]pyridine]
6	CS(=O)(=O)c1nn(Cc2nc3cc(Cl)ccc3n2[C@H]2CC[C@@](C)(O)CC2)c2cnccc12 [Example 2-37, cis-4-(5-chloro-2-{[3-(methylsulfonyl)-1H-pyrazolo[3,4-c]pyridin-1-yl]methyl}-1H-benzimidazol-1-yl)-1-methylcyclohexanol]

EC50 [nM]	Compound
33.5	COc1ccc(-n2c(Cn3nc(S(C)(=O)=O)c4ccccc43)nc3cc(Cl)ccc32)cn1 [Example 3-4, 1-{[5-Chloro-1-(6-methoxypyridin-3-yl)-1H-benzimidazol-2-yl]methyl}-3-(methylsulfonyl)-1H-indazole]
8.7	CS(=O)(=O)c1nn(Cc2nc3cc(Cl)ccc3n2CCC2(O)CC2)c2cnccc12 [Example 2-34, 1-[2-(5-Chloro-2-{[3-(methylsulfonyl)-1H-pyrazolo[3,4-c]pyridin-1-yl]methyl}-1H-benzimidazol-1-yl)ethyl]cyclopropanol]
62.5	CS(=O)(=O)CCCn1c(Cn2cc(S(C)(=O)=O)c3ccccc32)nc2cc(Cl)ccc21 [Example 1-2, 5-Chloro-2-{[3-(methylsulfonyl)-1H-indol-1-yl]methyl}-1-[3-(methylsulfonyl)propyl]-1H-benzimidazole]
8.75	CC(=O)N1CCC(n2c(Cn3nc(S(C)(=O)=O)c4ccccc43)nc3cc(Cl)ccc32)C1 (stereo not drawn) [Example 6-2, 1-[3-(5-Chloro-2-{[3-(methylsulfonyl)-1H-indazol-1-yl]methyl}-1H-benzimidazol-1-yl)pyrrolidin-1-yl]ethanone]
7.21	CS(=O)(=O)CCn1c(Cn2nc(S(C)(=O)=O)c3ccncc32)cc2cc(Cl)cc(F)c21 [Example 9-3, 1-({5-Chloro-7-fluoro-1-[2-(methylsulfonyl)ethyl]-1H-indol-2-yl}methyl)-3-(methylsulfonyl)-1H-pyrazolo[3,4-c]pyridine]
6.1	CS(=O)(=O)c1nn(Cc2nc3cc(Cl)ccc3n2C2C[C@@H](O)[C@H](O)C2)c2cnccc12 [Example 2-45, trans-4-(5-chloro-2-{[3-(methylsulfonyl)-1H-pyrazolo[3,4-c]pyridin-1-yl]methyl}-1H-benzimidazol-1-yl)cyclopentane-1,2-diol]
17	CS(=O)(=O)c1nn(Cc2nc3cc(Cl)cc(F)c3n2CCC(F)(F)F)c2cnccc12 [Example 5-1, 1-{[5-Chloro-7-fluoro-1-(3,3,3-trifluoropropyl)-1H-benzimidazol-2-yl]methyl}-3-(methylsulfonyl)-1H-pyrazolo[3,4-c]pyridine]
4.6	CS(=O)(=O)CCCn1c(Cn2nc(S(C)(=O)=O)c3ccncc32)nc2cc(Cl)ccc21 [Example 1-11, 1-({5-Chloro-1-[3-(methylsulfonyl)propyl]-1H-benzimidazol-2-yl}methyl)-3-(methylsulfonyl)-1H-pyrazolo[3,4-c]pyridine]
14.6	CS(=O)(=O)c1nn(Cc2nc3cc(Cl)ccc3n2CCCC(F)(F)F)c2ccccc12 [Example 4-1, 1-{[5-Chloro-1-(4,4,4-trifluorobutyl)-1H-benzimidazol-2-yl]methyl}-3-(methylsulfonyl)-1H-indazole]
197	CS(=O)(=O)CCCn1c(Cn2cc(S(C)(=O)=O)c3cc(F)ccc32)nc2cc(Cl)ccc21 [Example 1-3, 5-Chloro-2-{[5-fluoro-3-(methylsulfonyl)-1H-indol-1-yl]methyl}-1-[3-(methylsulfonyl)propyl]-1H-benzimidazole]
9.85	CS(=O)(=O)c1nn(Cc2nc3cc(Cl)ccc3n2[C@H]2C[C@@](C)(O)C2)c2cnccc12 [Example 2-33, cis-3-(5-Chloro-2-{[3-(methylsulfonyl)-1H-pyrazolo[3,4-c]pyridin-1-yl]methyl}-1H-benzimidazol-1-yl)-1-methylcyclobutanol]
6	CS(=O)(=O)c1nn(Cc2nc3cc(Cl)ccc3n2CCC2COC2)c2cnccc12 [Example 2-23, 1-({5-Chloro-1-[2-(oxetan-3-yl)ethyl]-1H-benzimidazol-2-yl}methyl)-3-(methylsulfonyl)-1H-pyrazolo[3,4-c]pyridine]
14.3	CS(=O)(=O)c1nn(Cc2nc3cc(Cl)ccc3n2C2CCC(F)(F)C2)c2cnccc12 (stereo not drawn) [Example 2-10, 1-{[5-Chloro-1-(3,3-difluorocyclopentyl)-1H-benzimidazol-2-yl]methyl}-3-(methylsulfonyl)-1H-pyrazolo[3,4-c]pyridine]
188	CS(=O)(=O)c1nn(Cc2nc3cc(Cl)ccc3n2[C@@H]2CCN(CC(F)(F)F)C2)c2cnccc12 [Example 2-20, 1-({5-Chloro-1-[(3R)-1-(2,2,2-trifluoroethyl)pyrrolidin-3-yl]-1H-benzimidazol-2-yl}methyl)-3-(methylsulfonyl)-1H-pyrazolo[3,4-c]pyridine]
21.8	CS(=O)(=O)c1nn(Cc2nc3cc(Cl)ccc3n2C2COC2)c2ccccc12 [Example 2-3, 1-{[5-Chloro-1-(oxetan-3-yl)-1H-benzimidazol-2-yl]methyl}-3-(methylsulfonyl)-1H-indazole]
8.04	CC(C)(O)CCn1c(Cn2nc(S(C)(=O)=O)c3ccncc32)nc2cc(Cl)ccc21 [Example 2-29, 4-(5-Chloro-2-{[3-(methylsulfonyl)-1H-pyrazolo[3,4-c]pyridin-1-yl]methyl}-1H-benzimidazol-1-yl)-2-methylbutan-2-ol]

— US9206191B2, “Indazoles for the treatment and prophylaxis of respiratory syncytial virus infection” (Hoffmann-La Roche Inc., priority 2012, dated 2015)
